# Results as given in ChEMBL document CHEMBL3885861, “Open TG-GATES”.
# Organism: Rattus norvegicus
# Test: Open TG-GATES - Regimen: Daily Repeat
# Type: toxicity, organism-based, Sprague-Dawley
# Set-up: regimen Daily Repeat, gender Male, age 6 weeks
# Conditions: in vivo, po, 0 mg/kg, route gavage, dose level Control; for APTT / Bas / Eos / Fbg / Hb / Ht / Lym / MCH / MCHC / MCV / Mono / Neu / PT / Plat / RBC / Ret / WBC: tissue Blood; for KIDNEY_L / KIDNEY_R / KIDNEY_TOTAL: tissue Kidney; for LIVER: tissue Liver; for A/G / ALP / ALT / AST / BUN / CRE / Ca / Cl / DBIL / GLC / IP / K / LDH / Na / PL / RALB / TBIL / TC / TG / TP / gamma-GTP: tissue Plasma
compound,measurement,setting,value
Cc1nnc2n1-c1ccc(Cl)cc1C(c1ccccc1Cl)=NC2 [TRIAZOLAM],TERMINAL_BW,"72 h, time 3 day",223.3 g
same,APTT,"72 h, time 3 day",19.2 s
same,Bas,"72 h, time 3 day",0%
same,Eos,"72 h, time 3 day",1.2%
same,Fbg,"72 h, time 3 day",272.8 mg/dL
same,Hb,"72 h, time 3 day",13.7 g/dL
same,Ht,"72 h, time 3 day",40.9%
same,Lym,"72 h, time 3 day",75.6%
same,MCH,"72 h, time 3 day",21 pg
same,MCHC,"72 h, time 3 day",33.5%
same,MCV,"72 h, time 3 day",62.7 fL
same,Mono,"72 h, time 3 day",3%
same,Neu,"72 h, time 3 day",19.2%
same,PT,"72 h, time 3 day",13 s
same,Plat,"72 h, time 3 day",121.4 x10_4/uL
same,RBC,"72 h, time 3 day",651.8 x10_4/ul
same,Ret,"72 h, time 3 day",7.4%
same,WBC,"72 h, time 3 day",85.5 x10_2/uL
same,KIDNEY_L,"72 h, time 3 day",1 g
same,KIDNEY_R,"72 h, time 3 day",1 g
same,KIDNEY_TOTAL,"72 h, time 3 day",1.9 g
same,LIVER,"72 h, time 3 day",10.5 g
same,A/G,"72 h, time 3 day",0.9
same,ALP,"72 h, time 3 day",1815 IU/L
same,ALT,"72 h, time 3 day",48.2 IU/L
same,AST,"72 h, time 3 day",75.8 IU/L
same,BUN,"72 h, time 3 day",15 mg/dL
same,CRE,"72 h, time 3 day",0.2 mg/dL
same,Ca,"72 h, time 3 day",11.3 mg/dL
same,Cl,"72 h, time 3 day",104.8 meq/L
same,DBIL,"72 h, time 3 day",0.014 mg/dL
same,GLC,"72 h, time 3 day",172.2 mg/dL
same,IP,"72 h, time 3 day",8.4 mg/dL
same,K,"72 h, time 3 day",4 meq/L
same,LDH,"72 h, time 3 day",74.8 IU/L
same,Na,"72 h, time 3 day",143.2 meq/L
same,PL,"72 h, time 3 day",168.8 mg/dL
same,RALB,"72 h, time 3 day",2.6 g/dL
same,TBIL,"72 h, time 3 day",0.054 mg/dL
same,TC,"72 h, time 3 day",86.4 mg/dL
same,TG,"72 h, time 3 day",126 mg/dL
same,TP,"72 h, time 3 day",5.6 g/dL
same,gamma-GTP,"72 h, time 3 day",1.2 IU/L
same,TERMINAL_BW,"[…], time 7 day",259.3 g
same,TERMINAL_BW,"[…], time 14 day",313.4 g
same,TERMINAL_BW,"[…], time 28 day",389.2 g
same,APTT,"[…], time 7 day",21.5 s
same,Bas,"[…], time 7 day",0%
same,Eos,"[…], time 7 day",1.2%
same,Fbg,"[…], time 7 day",262.4 mg/dL
same,Hb,"[…], time 7 day",13.7 g/dL
same,Ht,"[…], time 7 day",40.7%
same,Lym,"[…], time 7 day",76.4%
same,MCH,"[…], time 7 day",20.6 pg
same,MCHC,"[…], time 7 day",33.7%
same,MCV,"[…], time 7 day",61.2 fL
same,Mono,"[…], time 7 day",2.4%
same,Neu,"[…], time 7 day",19.4%
same,PT,"[…], time 7 day",12.8 s
same,Plat,"[…], time 7 day",126.9 x10_4/uL
same,RBC,"[…], time 7 day",665.6 x10_4/ul
same,Ret,"[…], time 7 day",5.6%
same,WBC,"[…], time 7 day",92.9 x10_2/uL
same,APTT,"[…], time 14 day",18.7 s
same,Bas,"[…], time 14 day",0.4%
same,Eos,"[…], time 14 day",1%
same,Fbg,"[…], time 14 day",250.2 mg/dL
same,Hb,"[…], time 14 day",14.4 g/dL
same,Ht,"[…], time 14 day",43.9%
same,Lym,"[…], time 14 day",74.6%
same,MCH,"[…], time 14 day",19.9 pg
same,MCHC,"[…], time 14 day",32.8%
same,MCV,"[…], time 14 day",60.6 fL
same,Mono,"[…], time 14 day",2.4%
same,Neu,"[…], time 14 day",21%
same,PT,"[…], time 14 day",13.6 s
same,Plat,"[…], time 14 day",122.6 x10_4/uL
same,RBC,"[…], time 14 day",723.8 x10_4/ul
same,Ret,"[…], time 14 day",4.5%
same,WBC,"[…], time 14 day",116.9 x10_2/uL
same,APTT,"[…], time 28 day",18.6 s
same,Bas,"[…], time 28 day",0.4%
same,Eos,"[…], time 28 day",1.4%
same,Fbg,"[…], time 28 day",262.6 mg/dL
same,Hb,"[…], time 28 day",15.3 g/dL
same,Ht,"[…], time 28 day",45.3%
same,Lym,"[…], time 28 day",79.6%
same,MCH,"[…], time 28 day",18.8 pg
same,MCHC,"[…], time 28 day",33.7%
same,MCV,"[…], time 28 day",55.8 fL
same,Mono,"[…], time 28 day",2%
same,Neu,"[…], time 28 day",15.8%
same,PT,"[…], time 28 day",13.4 s
same,Plat,"[…], time 28 day",106.8 x10_4/uL
same,RBC,"[…], time 28 day",812.8 x10_4/ul
same,Ret,"[…], time 28 day",2.1%
same,WBC,"[…], time 28 day",76.6 x10_2/uL
same,KIDNEY_L,"[…], time 7 day",1.1 g
same,KIDNEY_R,"[…], time 7 day",1.1 g
same,KIDNEY_TOTAL,"[…], time 7 day",2.2 g
same,KIDNEY_L,"[…], time 14 day",1.2 g
same,KIDNEY_R,"[…], time 14 day",1.2 g
same,KIDNEY_TOTAL,"[…], time 14 day",2.4 g
same,KIDNEY_L,"[…], time 28 day",1.4 g
same,KIDNEY_R,"[…], time 28 day",1.4 g
same,KIDNEY_TOTAL,"[…], time 28 day",2.7 g
same,LIVER,"[…], time 7 day",11.8 g
same,LIVER,"[…], time 14 day",13.3 g
same,LIVER,"[…], time 28 day",15.3 g
same,A/G,"[…], time 7 day",0.9
same,ALP,"[…], time 7 day",1652.6 IU/L
same,ALT,"[…], time 7 day",45.4 IU/L
same,AST,"[…], time 7 day",75 IU/L
same,BUN,"[…], time 7 day",16.8 mg/dL
same,CRE,"[…], time 7 day",0.2 mg/dL
same,Ca,"[…], time 7 day",10.9 mg/dL
same,Cl,"[…], time 7 day",105.8 meq/L
same,DBIL,"[…], time 7 day",0.01 mg/dL
same,GLC,"[…], time 7 day",188.2 mg/dL
same,IP,"[…], time 7 day",7.6 mg/dL
same,K,"[…], time 7 day",4.3 meq/L
same,LDH,"[…], time 7 day",73.6 IU/L
same,Na,"[…], time 7 day",141.8 meq/L
same,PL,"[…], time 7 day",161.6 mg/dL
same,RALB,"[…], time 7 day",2.6 g/dL
same,TBIL,"[…], time 7 day",0.042 mg/dL
same,TC,"[…], time 7 day",85 mg/dL
same,TG,"[…], time 7 day",122.8 mg/dL
same,TP,"[…], time 7 day",5.6 g/dL
same,gamma-GTP,"[…], time 7 day",1 IU/L
same,A/G,"[…], time 14 day",0.8
same,ALP,"[…], time 14 day",1514.4 IU/L
same,ALT,"[…], time 14 day",46 IU/L
same,AST,"[…], time 14 day",79.6 IU/L
same,BUN,"[…], time 14 day",15.4 mg/dL
same,CRE,"[…], time 14 day",0.2 mg/dL
same,Ca,"[…], time 14 day",10.9 mg/dL
same,Cl,"[…], time 14 day",104.4 meq/L
same,DBIL,"[…], time 14 day",0.012 mg/dL
same,GLC,"[…], time 14 day",172.4 mg/dL
same,IP,"[…], time 14 day",7.1 mg/dL
same,K,"[…], time 14 day",3.9 meq/L
same,LDH,"[…], time 14 day",90 IU/L
same,Na,"[…], time 14 day",143 meq/L
same,PL,"[…], time 14 day",167.4 mg/dL
same,RALB,"[…], time 14 day",2.6 g/dL
same,TBIL,"[…], time 14 day",0.044 mg/dL
same,TC,"[…], time 14 day",82.4 mg/dL
same,TG,"[…], time 14 day",135.6 mg/dL
same,TP,"[…], time 14 day",5.7 g/dL
same,gamma-GTP,"[…], time 14 day",1.4 IU/L
same,A/G,"[…], time 28 day",0.8
same,ALP,"[…], time 28 day",1373.8 IU/L
same,ALT,"[…], time 28 day",36.6 IU/L
same,AST,"[…], time 28 day",62 IU/L
same,BUN,"[…], time 28 day",15.4 mg/dL
same,CRE,"[…], time 28 day",0.2 mg/dL
same,Ca,"[…], time 28 day",10.7 mg/dL
same,Cl,"[…], time 28 day",105.8 meq/L
same,DBIL,"[…], time 28 day",0.008 mg/dL
same,GLC,"[…], time 28 day",185.8 mg/dL
same,IP,"[…], time 28 day",6.3 mg/dL
same,K,"[…], time 28 day",4.2 meq/L
same,LDH,"[…], time 28 day",57 IU/L
same,Na,"[…], time 28 day",144 meq/L
same,PL,"[…], time 28 day",158.4 mg/dL
same,RALB,"[…], time 28 day",2.7 g/dL
same,TBIL,"[…], time 28 day",0.056 mg/dL
same,TC,"[…], time 28 day",72.8 mg/dL
same,TG,"[…], time 28 day",159.8 mg/dL
same,TP,"[…], time 28 day",6.1 g/dL
same,gamma-GTP,"[…], time 28 day",1 IU/L
